Reference: patent US20060264460A1 (Wyeth, priority 2005, published 2006)

Target: T1, human Cot/Tpl2 kinase (Homo sapiens, UniProt P41279)
T1 construct: human Cot/Tpl2 kinase construct encoding residues 30-398; 6His (N); made in house; host or cells: Sf9 insect cells, baculovirus system (BD Biosciences)
Experiment: Tpl2/Cot kinase assay: GST-MEK1 phosphorylation detected by ELISA (DELFIA Eu)
Type: biochemical
In short: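 His-tagged human Tpl2 from Sf9 cells, Ni-affinity and size-exclusion purified (monomer). 0.4 nM Tpl2 with 35 nM GST-MEK1, 50 uM ATP, MOPS pH 7.2, 1% DMSO, 1 h at 30° C; EDTA stop. MEK1 Ser217/221 phosphorylation detected by anti-phospho-MEK1 and Eu-labelled secondary ELISA; IC50 fitted.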

[1] = Table 2, Tpl2/Cot kinase, GST-MEK1 substrate, 50 uM ATP
[2] = Tpl2/Cot kinase, GST-MEK1 substrate, 50 uM ATP, 1 h at 30° C., Table 2
[3] = Tpl2/Cot kinase, GST-MEK1 substrate, 50 uM ATP
[4] = 0.4 nM Tpl2, 35 nM GST-MEK1, 50 uM ATP, 1 h at 30° C.

T1 sequence (P41279 30-398): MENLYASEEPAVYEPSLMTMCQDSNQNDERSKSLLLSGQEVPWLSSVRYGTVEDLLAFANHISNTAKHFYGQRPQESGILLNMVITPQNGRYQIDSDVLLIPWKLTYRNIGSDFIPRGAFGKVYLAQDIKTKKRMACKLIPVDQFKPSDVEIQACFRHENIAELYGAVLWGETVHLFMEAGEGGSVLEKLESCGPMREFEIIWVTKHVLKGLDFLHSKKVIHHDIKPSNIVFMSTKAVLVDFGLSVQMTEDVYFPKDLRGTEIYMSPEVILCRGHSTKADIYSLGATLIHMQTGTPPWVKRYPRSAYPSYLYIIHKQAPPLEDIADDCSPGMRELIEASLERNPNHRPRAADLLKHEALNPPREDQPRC

| IC50 [1] [nM] | IC50 [3] [nM] | Structure (SMILES) | also measured |
| --- | --- | --- | --- |
| – | 330 | CCN1CCC[C@H]1CNc1cc(Cl)c2ncc(C#N)c(Nc3ccc(F)c(Cl)c3)c2c1 [Example 809] | – |
| – | 3.4 | N#Cc1cnc2c(Br)cc(NCc3cn(CCCN4CCCCC4)nn3)cc2c1Nc1ccc(F)c(Cl)c1 [Example 711] | – |
| 240 | – | CN(C)CCc1nc[nH]c1CNc1cc(Br)c2ncc(C#N)c(Nc3ccc(F)c(Cl)c3)c2c1 [Example 571] | – |
| – | 96 | CC(c1ccccc1)n1cc(CNc2cc(Cl)c3ncc(C#N)c(Nc4ccc(F)c(Cl)c4)c3c2)nn1 (stereo not drawn) [Example 761] | – |
| – | 660 | CC(=O)N1CCC(Nc2cc(Cl)c3ncc(C#N)c(Nc4ccc(F)c(Cl)c4)c3c2)CC1 [Example 873] | – |
| – | 1.3 | N#Cc1cnc2c(Br)cc(NCc3cn(CCc4ccncc4)nn3)cc2c1Nc1ccc(F)c(Cl)c1 [Example 919] | – |
| – | 9.1 | N#Cc1cnc2c(Cl)cc(NCc3cn(CC4CCCN4)nn3)cc2c1Nc1ccc(F)c(Cl)c1 (stereo not drawn) [Example 721] | – |
| – | 0.5 | CN(C)C(=O)N1CCC[C@H]1Cn1cc(CNc2cc(Cl)c3ncc(C#N)c(Nc4ccc(F)c(Cl)c4)c3c2)nn1 [Example 900] | – |
| – | 1970 | CCN1CCCCC1CNc1cc(Cl)c2ncc(C#N)c(Nc3ccc(F)c(Cl)c3)c2c1 (stereo not drawn) [Example 870] | – |
| – | 6.1 | CN1CC(CCn2cc(CNc3cc(Cl)c4ncc(C#N)c(Nc5ccc(F)c(Cl)c5)c4c3)nn2)N(C)C1=O (stereo not drawn) [Example 790] | – |
| – | > 3000 | CN(C)CC1CCCCC1Nc1cc(Cl)c2ncc(C#N)c(Nc3ccc(F)c(Cl)c3)c2c1 (stereo not drawn) [Example 646] | – |
| – | 1.1 | N#Cc1cnc2c(Cl)cc(NCc3cn(Cc4cncnc4)nn3)cc2c1Nc1ccc(F)c(Cl)c1 [Example 879] | – |
| 0.54 | – | CN(C)C(=O)Cn1cc(CNc2cc(Cl)c3ncc(C#N)c(Nc4ccc(F)c(Cl)c4)c3c2)nn1 [Example 613] | – |
| – | > 3000 | N#Cc1cnc2c(Cl)cc(NCCNC(=O)Cc3ccccn3)cc2c1Nc1ccc(F)c(Cl)c1 [Example 861] | – |
| – | 6.9 | CN1CCCC1CCNC(=O)Cn1cc(CNc2cc(Cl)c3ncc(C#N)c(Nc4ccc(F)c(Cl)c4)c3c2)nn1 (stereo not drawn) [Example 817] | – |
| 10 | – | CN(C)C(=O)CCn1cc(CNc2cc(Cl)c3ncc(C#N)c(Nc4ccc(F)c(Cl)c4)c3c2)nn1 [Example 614] | – |
| – | > 3000 | N#Cc1cnc2c(Cl)cc(NCC(=O)NCCCN3CCOCC3)cc2c1Nc1ccc(F)c(Cl)c1 [Example 776] | – |
| – | 62 | N#Cc1cnc2c(Cl)cc(NCc3cncn3CCN3CCOCC3)cc2c1Nc1ccc(F)c(Cl)c1 [Example 671] | – |
| – | 200 | Cn1cnc(CNc2cc(Br)c3ncc(C#N)c(Nc4ccc(F)c(Cl)c4)c3c2)n1 [Example 664] | – |
| 520 | – | CC(C)(C)OC(=O)N1CCCN(CCCn2cc(CNc3cc(Br)c4ncc(C#N)c(Nc5ccc(F)c(Cl)c5)c4c3)nn2)CC1 [Example 589] | – |
| – | 120 | CC(C)(C)OC(=O)N1CCCC(Cn2cc(CNc3cc(Br)c4ncc(C#N)c(Nc5ccc(F)c(Cl)c5)c4c3)nn2)C1 (stereo not drawn) [Example 713] | – |
| – | 230 | N#Cc1cnc2c(Br)cc(NCc3cn(C4CCCC4)cn3)cc2c1Nc1ccc(F)c(Cl)c1 [Example 799] | – |
| – | 35 | CCN1CCC(Cn2cc(CNc3cc(Cl)c4ncc(C#N)c(Nc5ccc(F)c(Cl)c5)c4c3)nn2)CC1 [Example 826] | – |

Second part, the molecule before the results:

| Structure (SMILES) | IC50 [1] [nM] | IC50 [3] [nM] | also measured |
| --- | --- | --- | --- |
| N#Cc1cnc2c(Br)cc(NCc3cncn3CCN3CCOCC3)cc2c1Nc1ccc(F)c(Cl)c1 [Example 482] | 160 | – | – |
| N#Cc1cnc2c(Cl)cc(NCc3cn(C4CCNCC4)nn3)cc2c1NC1CCC1 [Example 986] | – | – | IC50 [2]: 350 nM |
| COc1ccsc1CNc1cc(Cl)c2ncc(C#N)c(Nc3ccc(F)c(Cl)c3)c2c1 [Example 445] | 1100 | – | – |
| N#Cc1cnc2ccc(NCc3cnc[nH]3)cc2c1Nc1cccc(Br)c1 [Example 169, 6-((1H-imidazol-5-yl)methylamino)-4-(3-bromophenylamino)quinoline-3-carbonitrile] | – | – | IC50 [4]: 21 nM |
| N#Cc1cnc2c(Cl)cc(NCCn3cc(CCO)nn3)cc2c1Nc1ccc(F)c(Cl)c1 [Example 213, 8-chloro-4-[(3-chloro-4-fluorophenyl)amino]-6-({2-[4-(2-hydroxyethyl)-1H-1,2,3-triazol-1-yl]ethyl}amino)quinoline-3-carbonitrile] | – | – | IC50 [4]: 1500 nM |
| CN(C)CCCOc1ccc(CNc2ccc3ncc(C#N)c(Nc4cccc(Cl)c4)c3c2)cc1 [Example 347] | 600 | – | – |
| N#Cc1cnc2c(Cl)cc(NCc3cn(C4CCN(CC(O)CO)CC4)nn3)cc2c1Nc1ccc(F)c(Cl)c1 (stereo not drawn) [Example 994] | – | – | IC50 [2]: 6.8 nM |
| N#Cc1cnc2c(F)cc(NCc3cc[n+]([O-])cc3)cc2c1Nc1ccc(F)c(Cl)c1 [Example 270, 4-[(3-Chloro-4-fluorophenyl)amino]-8-fluoro-6-{[(1-oxidopyridin-4-yl)methyl]amino}quinoline-3-carbonitrile] | – | – | IC50 [4]: 100 nM |
| COc1cc(NCc2cccnc2)cc2c(Nc3ccc(C)c(O)c3)c(C#N)cnc12 [Example 386] | > 40000 | – | – |
| CCN1CCC(Cn2cc(CNc3cc(Br)c4ncc(C#N)c(Nc5ccc(F)c(Cl)c5)c4c3)nn2)CC1 [Example 566] | 40 | – | – |
| COCC(=O)NCCn1cc(CNc2cc(Br)c3ncc(C#N)c(Nc4ccc(F)c(Cl)c4)c3c2)nn1 [Example 218, N-(2-(4-((8-bromo-4-(3-chloro-4-fluorophenylamino)-3-cyanoquinolin-6-ylamino)methyl)-1H-1,2,3-triazol-1-yl)ethyl)-2-methoxyacetamide] | – | – | IC50 [4]: 32 nM |
| CC(C)N1CCC(O)(c2cncc(CNc3cc(Cl)c4ncc(C#N)c(Nc5ccc(F)c(Cl)c5)c4c3)c2)CC1 [Example 1033] | – | – | IC50 [2]: 500 nM |
| CCc1nc(CNc2cc(Cl)c3ncc(C#N)c(Nc4ccc(F)c(Cl)c4)c3c2)c(C)n1C(=O)OC(C)(C)C [Example 194, tert-butyl 4-((8-chloro-4-(3-chloro-4-fluorophenylamino)-3-cyanoquinolin-6-ylamino)methyl)-2-ethyl-5-methyl-1H-imidazole-1-carboxylate] | – | – | IC50 [4]: 9700 nM |
| CCN1CCC(Nc2ccc3ncc(C#N)c(Nc4ccc(F)c(Cl)c4)c3c2)C(C)C1 (stereo not drawn) [Example 377] | > 40000 | – | – |
| N#Cc1cnc2ccc(NCc3cccc(F)c3)cc2c1Nc1ccc(F)c(Cl)c1 [Example 145, 6-(3-fluorobenzylamino)-4-(3-chloro-4-fluorophenylamino)quinoline-3-carbonitrile] | – | – | IC50 [4]: 2100 nM |
| N#Cc1cnc2ccc(NC[C@@H]3CCCN3)cc2c1Nc1ccc(F)c(Cl)c1 [Example 43, 4-(3-Chloro-4-fluoro-phenylamino)-6-[(L-pyrrolidin-2-ylmethyl)-amino]-quinoline-3-carbonitrile] | – | – | IC50 [4]: 15300 nM |

| Structure (SMILES) | IC50 [1] [nM] | IC50 [3] [nM] | also measured |
| --- | --- | --- | --- |
| N#Cc1cnc2ccc(NCCN3CCOCC3)cc2c1Nc1cccc(F)c1 [Example 351] | 1900 | – | – |
| CSc1cc(NCc2cnc[nH]2)cc2c(Nc3ccc(F)c(Cl)c3)c(C#N)cnc12 [Example 287, 4-[(3-chloro-4-fluorophenyl)amino]-6-[(1H-imidazol-5-ylmethyl)amino]-8-(methylthio)quinoline-3-carbonitrile] | – | – | IC50 [4]: 340 nM |
| N#Cc1cnc2ccc(NCc3ccc4c(c3)OCO4)cc2c1Nc1cccc(Cl)c1 [Example 346] | 600 | – | – |
| CCCCc1ncc(CNc2cc(Br)c3ncc(C#N)c(Nc4ccc(F)c(Cl)c4)c3c2)[nH]1 [Example 107, 8-bromo-6-((2-butyl-1H-imidazol-5-yl)methylamino)-4-(3-chloro-4-fluorophenylamino)quinoline-3-carbonitrile] | – | – | IC50 [4]: 900 nM |
| Cn1nnc(CCNc2cc(Cl)c3ncc(C#N)c(Nc4ccc(F)c(Cl)c4)c3c2)n1 [Example 467] | 1200 | – | – |
| Cc1cc2ncc(C#N)c(Nc3ccc(F)c(Cl)c3)c2cc1NCc1cnc[nH]1 [Example 226, 4-[(3-chloro-4-fluorophenyl)amino]-6-[(1H-imidazol-5-ylmethyl)amino]-7-methylquinoline-3-carbonitrile] | – | – | IC50 [4]: > 40000 nM |
| N#Cc1cnc2c(Br)cc(NCc3cc(-c4ccccc4)[nH]n3)cc2c1Nc1ccc(F)c(Cl)c1 [Example 454] | 330 | – | – |
| N#Cc1cnc2ccc(NCC3CCOCC3)cc2c1Nc1ccc(F)c(Cl)c1 [Example 61, 4-(3-Chloro-4-fluoro-phenylamino)-6-[(tetrahydro-pyran-4-ylmethyl)-amino]-quinoline-3-carbonitrile] | – | – | IC50 [4]: 810 nM |
| N#Cc1cnc2c(C(F)(F)F)cc(NCc3cncnc3)cc2c1Nc1ccc(F)c(Cl)c1 [Example 240, 4-[(3-chloro-4-fluorophenyl)amino]-6-[(pyrimidin-5-ylmethyl)amino]-8-(trifluoromethyl)quinoline-3-carbonitrile] | – | – | IC50 [4]: 190 nM |
| N#Cc1cnc2ccc(NCc3ccccn3)cc2c1Nc1ccccc1 [Example 361] | 250 | – | – |
| N#Cc1cnc2c(Br)cc(NCc3cn(-c4ccncc4)nn3)cc2c1Nc1ccc(F)c(Cl)c1 [Example 559] | 5.5 | – | – |
| CN(C)CCNS(=O)(=O)c1ccc(CNc2ccc3ncc(C#N)c(Nc4ccc(F)c(Cl)c4)c3c2)cc1 [Example 123, 4-((4-(3-chloro-4-fluorophenylamino)-3-cyanoquinolin-6-ylamino)methyl)-N-(2-(dimethylamino)ethyl)benzenesulfonamide] | – | – | IC50 [4]: 540 nM |
| N#Cc1cc(CNc2ccc3ncc(C#N)c(Nc4ccc(F)c(Cl)c4)c3c2)ccc1OCC(=O)O [Example 34, (4-{[4-(3-Chloro-4-fluoro-phenylamino)-3-cyano-quinolin-6-ylamino]-methyl}-2-cyano-phenoxy)-acetic acid] | – | – | IC50 [4]: 260 nM |
| N#Cc1cnc2ccc(NCCN3CCOCC3)cc2c1Nc1ccc(Br)cc1 [Example 355] | > 10000 | – | – |
| N#Cc1cnc2ccc(NCc3cnc[nH]3)cc2c1Nc1ccncc1 [Example 264, 6-[(1H-imidazol-5-ylmethyl)amino]-4-(pyridin-4-ylamino)quinoline-3-carbonitrile] | – | – | IC50 [4]: 2500 nM |
